What was measured:
[1] = system: Epidermal growth factor receptor (Homo sapiens), P00533 [UNDEFINED MUTATION]; settings: Compound concentration 1000.0 nM
[2] = biological target: SRSF protein kinase 3 (Homo sapiens) (UniProt Q9UPE1); settings: Compound concentration 1000.0 nM
[3] = biological target: 5'-AMP-activated protein kinase catalytic subunit alpha-1 (Homo sapiens) (UniProt Q13131); settings: Compound concentration 1000.0 nM
[4] = biological target: Alpha-1B adrenergic receptor (Homo sapiens) (UniProt P35368); settings: Compound concentration 10.0 uM
[5] = biological target: 5-hydroxytryptamine receptor 1A (Homo sapiens) (UniProt P08908); settings: Compound concentration 10.0 uM
[6] = system: Receptor-type tyrosine-protein kinase FLT3 (Homo sapiens), P36888 [D835H]; settings: Compound concentration 1000.0 nM
[7] = biological target: Calcium/calmodulin-dependent protein kinase type II subunit gamma (Homo sapiens) (UniProt Q13555); settings: Compound concentration 1000.0 nM
[8] = biological target: Serine/threonine-protein kinase NIM1 (Homo sapiens) (UniProt Q8IY84); settings: Compound concentration 1000.0 nM
[9] = biological target: Phosphatidylinositol 4,5-bisphosphate 3-kinase catalytic subunit alpha isoform (Homo sapiens) (UniProt P42336); settings: Compound concentration 1000.0 nM
[10] = biological target: Muscarinic acetylcholine receptor M5 (Homo sapiens) (UniProt P08912); settings: Compound concentration 10.0 uM
[11] = biological target: Ephrin type-A receptor 4 (Homo sapiens) (UniProt P54764); settings: Compound concentration 1000.0 nM
[12] = biological target: 5-hydroxytryptamine receptor 2B (Homo sapiens, UniProt P41595); experiment: GPCRScan assay: inhibition of 5-HT2B; design: radioligand conc. used [nm] 1.0 – 2.0, parental cells stable HEK
[13] = system: Tyrosine-protein kinase ABL1 (Homo sapiens), P00519 [Y253F]; settings: Compound concentration 1000.0 nM
[14] = system: ALK tyrosine kinase receptor (Homo sapiens), Q9UM73 [C1156Y]; settings: Compound concentration 1000.0 nM
[15] = biological target: Dual specificity tyrosine-phosphorylation-regulated kinase 1A (Homo sapiens) (UniProt Q13627); settings: Compound concentration 1000.0 nM
[16] = biological target: D(1A) dopamine receptor (Homo sapiens) (UniProt P21728); settings: Compound concentration 10.0 uM
[17] = biological target: Protein-tyrosine kinase 6 (Homo sapiens) (UniProt Q13882); settings: Compound concentration 1000.0 nM
[18] = biological target: Mitogen-activated protein kinase 4 (Homo sapiens) (UniProt P31152); settings: Compound concentration 1000.0 nM
[19] = biological target: Platelet-derived growth factor receptor alpha (Homo sapiens) (UniProt P16234); settings: Compound concentration 1000.0 nM
[20] = biological target: Serine/threonine-protein kinase MAK (Homo sapiens) (UniProt P20794); settings: Compound concentration 1000.0 nM
[21] = biological target: Homeodomain-interacting protein kinase 1 (Homo sapiens) (UniProt Q86Z02); settings: Compound concentration 1000.0 nM
[22] = biological target: Serine/threonine-protein kinase Nek7 (Homo sapiens) (UniProt Q8TDX7); settings: Compound concentration 1000.0 nM
[23] = biological target: Death-associated protein kinase 3 (Homo sapiens) (UniProt O43293); settings: Compound concentration 1000.0 nM
[24] = biological target: Hormonally up-regulated neu tumor-associated kinase (Homo sapiens) (UniProt P57058); settings: Compound concentration 1000.0 nM
[25] = biological target: LIM domain kinase 2 (Homo sapiens) (UniProt P53671); settings: Compound concentration 1000.0 nM
[26] = biological target: Receptor tyrosine-protein kinase erbB-3 (Homo sapiens) (UniProt P21860); settings: Compound concentration 1000.0 nM
[27] = biological target: SNF-related serine/threonine-protein kinase (Homo sapiens) (UniProt Q9NRH2); settings: Compound concentration 1000.0 nM
[28] = biological target: SRSF protein kinase 2 (Homo sapiens) (UniProt P78362); settings: Compound concentration 1000.0 nM
[29] = system: Epidermal growth factor receptor (Homo sapiens), P00533 [UNDEFINED MUTATION]; settings: Compound concentration 1000.0 nM; remark: listed apart in the source
[30] = biological target: Serine/threonine-protein kinase Nek11 (Homo sapiens) (UniProt Q8NG66); settings: Compound concentration 1000.0 nM
[31] = biological target: Mitogen-activated protein kinase 6 (Homo sapiens) (UniProt Q16659); settings: Compound concentration 1000.0 nM
[32] = system: Mast/stem cell growth factor receptor Kit (Homo sapiens), P10721 [A829P]; settings: Compound concentration 1000.0 nM
[33] = biological target: Insulin receptor (Homo sapiens) (UniProt P06213); settings: Compound concentration 1000.0 nM
[34] = system: Epidermal growth factor receptor (Homo sapiens), P00533 [L861Q]; settings: Compound concentration 1000.0 nM
[35] = biological target: Dual specificity mitogen-activated protein kinase kinase 4 (Homo sapiens) (UniProt P45985); settings: Compound concentration 1000.0 nM
[36] = biological target: Sodium-dependent dopamine transporter (Homo sapiens) (UniProt Q01959); settings: Compound concentration 10.0 uM
[37] = biological target: Casein kinase I isoform gamma-1 (Homo sapiens) (UniProt Q9HCP0); settings: Compound concentration 1000.0 nM
[38] = biological target: Aurora kinase C (Homo sapiens) (UniProt Q9UQB9); settings: Compound concentration 1000.0 nM
[39] = system: Phosphatidylinositol 4,5-bisphosphate 3-kinase catalytic subunit alpha isoform (Homo sapiens), P42336 [E545A]; settings: Compound concentration 1000.0 nM
[40] = system: Receptor-type tyrosine-protein kinase FLT3 (Homo sapiens), P36888 [UNDEFINED MUTATION]; settings: Compound concentration 1000.0 nM
[41] = system: Mast/stem cell growth factor receptor Kit (Homo sapiens), P10721 [V559D,T670I]; settings: Compound concentration 1000.0 nM
[42] = biological target: Ephrin type-B receptor 1 (Homo sapiens) (UniProt P54762); settings: Compound concentration 1000.0 nM
[43] = biological target: Serine/threonine-protein kinase 32C (Homo sapiens) (UniProt Q86UX6); settings: Compound concentration 1000.0 nM
[44] = biological target: Ribosomal protein S6 kinase alpha-1 (Homo sapiens) (UniProt Q15418); settings: Compound concentration 1000.0 nM
[45] = biological target: Mitogen-activated protein kinase kinase kinase 20 (Homo sapiens) (UniProt Q9NYL2); settings: Compound concentration 1000.0 nM

ALK tyrosine kinase receptor (Homo sapiens), Q9UM73 [C1156Y], sequence (Q9UM73 whole entry C1156Y, looked up): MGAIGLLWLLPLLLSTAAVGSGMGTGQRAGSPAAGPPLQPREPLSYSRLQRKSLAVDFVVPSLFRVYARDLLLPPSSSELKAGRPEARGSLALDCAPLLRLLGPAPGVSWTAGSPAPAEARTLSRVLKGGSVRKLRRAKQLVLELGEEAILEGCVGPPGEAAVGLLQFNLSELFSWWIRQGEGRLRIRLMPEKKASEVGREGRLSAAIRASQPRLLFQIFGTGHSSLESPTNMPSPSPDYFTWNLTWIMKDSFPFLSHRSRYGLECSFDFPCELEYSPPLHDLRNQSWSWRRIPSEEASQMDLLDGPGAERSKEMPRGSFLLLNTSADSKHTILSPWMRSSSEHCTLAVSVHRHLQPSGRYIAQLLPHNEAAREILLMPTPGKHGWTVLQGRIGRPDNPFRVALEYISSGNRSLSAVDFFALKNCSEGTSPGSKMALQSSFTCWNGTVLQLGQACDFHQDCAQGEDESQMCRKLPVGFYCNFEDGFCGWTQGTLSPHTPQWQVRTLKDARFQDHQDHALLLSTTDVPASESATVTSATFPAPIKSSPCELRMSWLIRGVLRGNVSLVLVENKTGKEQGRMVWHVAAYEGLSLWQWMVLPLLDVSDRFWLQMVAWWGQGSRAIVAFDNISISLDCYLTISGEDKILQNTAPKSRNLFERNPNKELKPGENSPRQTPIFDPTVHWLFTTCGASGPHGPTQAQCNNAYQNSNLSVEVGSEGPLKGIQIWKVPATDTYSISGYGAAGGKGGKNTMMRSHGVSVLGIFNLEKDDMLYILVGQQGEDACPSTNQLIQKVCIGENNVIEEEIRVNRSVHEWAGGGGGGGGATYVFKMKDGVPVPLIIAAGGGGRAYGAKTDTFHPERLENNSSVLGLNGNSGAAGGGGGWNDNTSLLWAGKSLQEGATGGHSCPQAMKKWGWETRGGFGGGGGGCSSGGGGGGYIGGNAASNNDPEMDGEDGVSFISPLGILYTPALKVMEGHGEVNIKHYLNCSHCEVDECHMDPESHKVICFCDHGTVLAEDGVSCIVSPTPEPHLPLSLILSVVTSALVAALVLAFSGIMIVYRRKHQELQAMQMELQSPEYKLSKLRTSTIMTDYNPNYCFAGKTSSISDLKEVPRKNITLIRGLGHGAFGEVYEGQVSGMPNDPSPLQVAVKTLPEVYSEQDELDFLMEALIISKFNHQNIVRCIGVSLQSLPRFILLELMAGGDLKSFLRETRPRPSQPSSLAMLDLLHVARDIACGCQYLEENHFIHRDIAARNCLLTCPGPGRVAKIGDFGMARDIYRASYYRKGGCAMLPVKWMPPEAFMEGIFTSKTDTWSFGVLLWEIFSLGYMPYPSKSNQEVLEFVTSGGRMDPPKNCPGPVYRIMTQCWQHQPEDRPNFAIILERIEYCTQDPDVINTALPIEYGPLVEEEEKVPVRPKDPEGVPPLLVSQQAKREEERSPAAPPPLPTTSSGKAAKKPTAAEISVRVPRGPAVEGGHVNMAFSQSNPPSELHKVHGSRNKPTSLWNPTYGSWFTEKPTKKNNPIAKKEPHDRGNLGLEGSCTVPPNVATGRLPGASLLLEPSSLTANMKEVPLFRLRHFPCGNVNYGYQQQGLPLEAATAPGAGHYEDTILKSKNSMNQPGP
Serine/threonine-protein kinase Nek7 (Homo sapiens), sequence (Q8TDX7 whole entry, looked up): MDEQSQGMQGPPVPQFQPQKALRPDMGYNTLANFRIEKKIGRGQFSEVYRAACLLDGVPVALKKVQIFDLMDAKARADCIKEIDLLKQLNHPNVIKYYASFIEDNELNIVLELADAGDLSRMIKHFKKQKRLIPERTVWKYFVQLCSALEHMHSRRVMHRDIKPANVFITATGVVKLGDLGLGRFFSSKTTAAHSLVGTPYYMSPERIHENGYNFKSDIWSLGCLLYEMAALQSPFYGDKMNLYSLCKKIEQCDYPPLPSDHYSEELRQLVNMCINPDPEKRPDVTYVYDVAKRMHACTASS
Mitogen-activated protein kinase 4 (Homo sapiens), sequence (P31152 whole entry): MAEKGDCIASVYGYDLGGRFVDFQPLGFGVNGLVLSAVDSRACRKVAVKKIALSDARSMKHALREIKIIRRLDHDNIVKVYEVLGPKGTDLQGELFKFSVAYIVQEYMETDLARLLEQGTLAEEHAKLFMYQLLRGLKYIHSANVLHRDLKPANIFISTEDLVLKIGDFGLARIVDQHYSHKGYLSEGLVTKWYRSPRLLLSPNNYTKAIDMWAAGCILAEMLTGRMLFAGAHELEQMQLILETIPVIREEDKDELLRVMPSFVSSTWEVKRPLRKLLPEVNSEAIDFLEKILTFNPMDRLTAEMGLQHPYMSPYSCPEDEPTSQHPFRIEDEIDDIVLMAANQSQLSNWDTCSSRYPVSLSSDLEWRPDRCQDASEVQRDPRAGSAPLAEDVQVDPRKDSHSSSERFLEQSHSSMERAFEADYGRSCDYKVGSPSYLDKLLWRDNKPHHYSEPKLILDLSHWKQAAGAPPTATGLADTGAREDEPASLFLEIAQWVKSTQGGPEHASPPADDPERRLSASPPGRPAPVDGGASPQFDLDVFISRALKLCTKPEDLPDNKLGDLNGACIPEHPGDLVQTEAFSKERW
SRSF protein kinase 3 (Homo sapiens), sequence (Q9UPE1 whole entry): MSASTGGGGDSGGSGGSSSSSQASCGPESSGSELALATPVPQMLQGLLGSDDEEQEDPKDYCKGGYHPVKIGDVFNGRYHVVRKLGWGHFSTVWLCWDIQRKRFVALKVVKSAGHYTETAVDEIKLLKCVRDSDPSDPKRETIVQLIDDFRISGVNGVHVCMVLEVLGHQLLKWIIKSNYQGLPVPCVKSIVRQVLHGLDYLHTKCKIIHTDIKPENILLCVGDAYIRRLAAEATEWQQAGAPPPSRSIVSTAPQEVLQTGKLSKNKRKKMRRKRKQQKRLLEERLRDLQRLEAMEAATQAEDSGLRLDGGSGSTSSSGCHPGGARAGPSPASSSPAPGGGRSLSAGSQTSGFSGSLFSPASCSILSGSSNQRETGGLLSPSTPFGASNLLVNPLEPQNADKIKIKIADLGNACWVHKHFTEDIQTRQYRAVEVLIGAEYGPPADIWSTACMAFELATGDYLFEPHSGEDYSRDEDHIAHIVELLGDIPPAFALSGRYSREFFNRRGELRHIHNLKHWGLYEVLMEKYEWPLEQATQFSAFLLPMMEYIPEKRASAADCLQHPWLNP
Hormonally up-regulated neu tumor-associated kinase (Homo sapiens), sequence (P57058 whole entry, the tested form may be a part): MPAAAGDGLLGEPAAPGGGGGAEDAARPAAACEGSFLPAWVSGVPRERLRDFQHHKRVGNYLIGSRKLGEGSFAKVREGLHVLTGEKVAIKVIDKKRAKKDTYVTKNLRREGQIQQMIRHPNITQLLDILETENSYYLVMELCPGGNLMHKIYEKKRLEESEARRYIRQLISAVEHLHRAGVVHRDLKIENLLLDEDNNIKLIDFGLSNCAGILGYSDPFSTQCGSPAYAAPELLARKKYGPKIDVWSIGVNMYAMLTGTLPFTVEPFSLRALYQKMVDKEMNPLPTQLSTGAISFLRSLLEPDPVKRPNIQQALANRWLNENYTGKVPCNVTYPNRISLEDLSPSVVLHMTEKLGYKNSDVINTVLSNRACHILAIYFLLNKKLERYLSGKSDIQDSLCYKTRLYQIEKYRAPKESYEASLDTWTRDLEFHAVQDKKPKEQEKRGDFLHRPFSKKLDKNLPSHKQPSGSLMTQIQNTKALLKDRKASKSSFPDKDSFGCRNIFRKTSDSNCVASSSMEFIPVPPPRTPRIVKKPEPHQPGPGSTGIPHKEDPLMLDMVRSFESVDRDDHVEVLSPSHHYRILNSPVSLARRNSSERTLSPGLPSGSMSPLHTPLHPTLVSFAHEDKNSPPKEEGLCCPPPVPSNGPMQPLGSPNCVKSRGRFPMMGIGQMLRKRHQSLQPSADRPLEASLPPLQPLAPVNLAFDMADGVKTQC
Muscarinic acetylcholine receptor M5 (Homo sapiens), sequence (P08912 whole entry): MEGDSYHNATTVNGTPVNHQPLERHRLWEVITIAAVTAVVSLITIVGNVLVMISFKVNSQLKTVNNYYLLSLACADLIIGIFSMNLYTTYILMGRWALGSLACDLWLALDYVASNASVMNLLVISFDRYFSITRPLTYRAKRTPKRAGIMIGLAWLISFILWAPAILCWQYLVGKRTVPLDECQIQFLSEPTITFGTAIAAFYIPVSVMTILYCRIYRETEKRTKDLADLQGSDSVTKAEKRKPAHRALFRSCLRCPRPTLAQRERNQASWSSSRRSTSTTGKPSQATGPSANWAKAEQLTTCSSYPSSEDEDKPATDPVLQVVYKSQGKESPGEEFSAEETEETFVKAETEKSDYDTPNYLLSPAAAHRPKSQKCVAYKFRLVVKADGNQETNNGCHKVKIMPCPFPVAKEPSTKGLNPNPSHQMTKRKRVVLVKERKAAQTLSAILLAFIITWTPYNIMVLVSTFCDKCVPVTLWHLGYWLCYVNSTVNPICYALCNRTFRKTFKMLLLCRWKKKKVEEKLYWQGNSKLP
Serine/threonine-protein kinase MAK (Homo sapiens), sequence (P20794 whole entry): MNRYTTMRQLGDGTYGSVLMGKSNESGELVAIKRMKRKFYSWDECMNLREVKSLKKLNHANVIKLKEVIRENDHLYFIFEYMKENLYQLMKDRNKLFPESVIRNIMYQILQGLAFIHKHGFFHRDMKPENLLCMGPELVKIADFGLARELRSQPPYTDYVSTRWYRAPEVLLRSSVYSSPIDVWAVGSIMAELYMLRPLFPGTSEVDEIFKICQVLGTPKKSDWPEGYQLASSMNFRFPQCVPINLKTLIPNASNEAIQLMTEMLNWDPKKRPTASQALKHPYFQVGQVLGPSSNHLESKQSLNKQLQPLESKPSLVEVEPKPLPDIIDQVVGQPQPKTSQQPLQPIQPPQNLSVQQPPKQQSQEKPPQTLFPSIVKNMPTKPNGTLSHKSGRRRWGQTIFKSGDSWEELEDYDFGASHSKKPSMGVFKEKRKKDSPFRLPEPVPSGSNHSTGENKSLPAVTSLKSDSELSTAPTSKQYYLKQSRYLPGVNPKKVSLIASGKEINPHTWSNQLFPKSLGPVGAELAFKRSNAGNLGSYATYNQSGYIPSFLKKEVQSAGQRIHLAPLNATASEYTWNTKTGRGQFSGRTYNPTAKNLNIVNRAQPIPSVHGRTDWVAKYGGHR

CC(C)(O)c1cncc(-c2nc3ccc(F)cc3n2C2CC2)c1 [MSD-CYP11B2]
residual activity [1]: 100%
residual activity [2]: 100%
residual activity [3]: 100%
inhibition [4]: 23.8%
inhibition [5]: 1.22%
residual activity [6]: 89%
residual activity [7]: 100%
residual activity [8]: 100%
residual activity [9]: 100%
inhibition [10]: -2.81%
residual activity [11]: 100%
Ki [12]: 1.54 µM
residual activity [13]: 100%
residual activity [14]: 100%
residual activity [15]: 48%
inhibition [16]: 0.87%
residual activity [17]: 100%
residual activity [18]: 100%
residual activity [19]: 100%
residual activity [20]: 100%
residual activity [21]: 97%
residual activity [22]: 100%
residual activity [23]: 100%
residual activity [24]: 100%
residual activity [25]: 100%
residual activity [26]: 80%
residual activity [27]: 86%
residual activity [28]: 86%
residual activity [29]: 100%
residual activity [30]: 100%
residual activity [31]: 100%
residual activity [32]: 100%
residual activity [33]: 100%
residual activity [34]: 100%
residual activity [35]: 100%
inhibition [36]: 1.47%
residual activity [37]: 100%
residual activity [38]: 100%
residual activity [39]: 90%
residual activity [40]: 100%
residual activity [41]: 100%
residual activity [42]: 100%
residual activity [43]: 100%
residual activity [44]: 100%
residual activity [45]: 100%

FC(F)(F)c1ccc2c(c1)nc(-c1cccnc1)n2C1CC1 [MSD-CYP11B2-Negative-control]
residual activity [1]: 100%
residual activity [2]: 100%
residual activity [3]: 100%
inhibition [4]: 11.7%
inhibition [5]: 0.44%
residual activity [6]: 69%
residual activity [7]: 100%
residual activity [8]: 100%
residual activity [9]: 100%
inhibition [10]: -6.15%
residual activity [11]: 100%
Ki [12]: 1.07 µM
residual activity [13]: 100%
residual activity [14]: 100%
residual activity [15]: 100%
inhibition [16]: -3.97%
residual activity [17]: 100%
residual activity [18]: 100%
residual activity [19]: 100%
residual activity [20]: 100%
residual activity [21]: 100%
residual activity [22]: 100%
residual activity [23]: 100%
residual activity [24]: 100%
residual activity [25]: 100%
residual activity [26]: 77%
residual activity [27]: 82%
residual activity [28]: 93%
residual activity [29]: 100%
residual activity [30]: 100%
residual activity [31]: 100%
residual activity [32]: 100%
residual activity [33]: 100%
residual activity [34]: 100%
residual activity [35]: 100%
inhibition [36]: 15.3%
residual activity [37]: 100%
residual activity [38]: 100%
residual activity [39]: 90%
residual activity [40]: 100%
residual activity [41]: 100%
residual activity [42]: 100%
residual activity [43]: 100%
residual activity [44]: 100%
residual activity [45]: 100%

From ChEMBL document CHEMBL4507294, “Data for DCP probe MSD-CYP11B2” (2021)
